Test results published in PMC8279857, “In Vitro and In Silico Evaluation for the Inhibitory Action of O. basilicum Methanol Extract on α-Glucosidase and α-Amylase” (Evidence-based Complementary and Alternative Medicine : eCAM, 2021).

Target: T1, intestinal α-glucosidase
T1 construct: called intestinal; pNPG assay after Kim et al; 5KZW (docking only) is not the assayed enzyme
Experiment: p-nitrophenol release from pNPG, absorbance […] nm
Type: biochemical
Settings: p-nitrophenyl α-D-glucopyranoside (250 μL of 20 mM), sodium phosphate pH 6.9, 37°C, 10 min preincubation

- IC50: 1050 ± 250 µM
SMILES: O=C(O)/C=C/c1ccc(O)c(O)c1 [caffeic acid]
